Results taken from patent publication US10085963B2, “Process and compositions for achieving mammalian energy balance” (SAMI LABS LIMITED, priority 2015, dated 2018).

Key:
[1] = administration in humans; cited from earlier work
[2] = test system: mammalian pre-adipocytes / adipocytes; assay: Adipogenesis inhibition, Oil Red O staining; type: cell-based
Method: […] C.) of 5% CO2 and 95% air; • f) Fixing, the cells of step e by adding 100 μl of 10% formalin and staining using the Oil Red O technique; • g) Reading the optical density of cells of step f at 492 nm in a microplate reader and expressing the results as inhibitory concentration (IC50) values using the graph pad prism software; • h) Calculating the percentage inhibition of adipogenesis in the cells of steps f and g using the formula, C-T/T×100, wherein C is the absorbance of Oil Red O in differentiating/undifferentiated cells and T is the absorbance of Oil Red O in sample treated differentiating/undifferentiated cells. • i) Adding 200 μl of freshly prepared Adipogenesis induction medium to the wells of step a. • j) Adding 200 μl of freshly prepared Adipogenesis progression medium comprising graded concentrations of forskolin (50 μg/ml and 100 μg/ml respectively) to the wells of step i after 72 hours of incubation with the Adipogenesis induction medium; • k) Incubating the cells treated with forskolin (step j), adipogenesis induction medium (step i) and adipogenesis progression medium (step j) for 48 hours in a humidified atmosphere (37 deg. C.) of 5% (CO2 and 95% air; • l) Fixing the cells of step 1 by adding 100 μl of 10% formal in and staining using the Oil Red O technique; • m) Reading the optical density of cells of step m at 492 nm in as microplate reader and expressing the results as inhibitory concentration (IC50) values using the graph pad prism software; • n) Calculating the percentage inhibition of adipogenesis in the cells of steps m and n using the formula, C-T/T×100, wherein C is the absorbance of Oil Red O in differentiating/undifferentiated cells and T is the absorbance of Oil Red O in sample treated differentiating/undifferentiated cells; and • o) Comparing percentage inhibition of adipogenesis in the cells of steps h and o.

**Q.** Which “clinically significant side effects” value [1] does the source give for `C=C[C@@]1(C)CC(=O)[C@]2(O)[C@@]3(C)[C@@H](O)CCC(C)(C)[C@@H]3[C@H](O)[C@H](OC(C)=O)[C@@]2(C)O1` [forskolin] here?
**A.** does not cause clinically significant side effects

**Q.** And the inhibition at 6.25 µg/mL ([2]; Adipocyte, forskolin 6.25 μg/ml, read-out: % inhibition of adipogenesis when forskolin is added after differentiation of pre-adipocytes to the adipocyte stage)?
**A.** 1.2%

**Q.** And the inhibition at 12.5 µg/mL ([2]; Adipocyte, forskolin 12.50 μg/ml, read-out: % inhibition of adipogenesis when forskolin is added after differentiation of pre-adipocytes to the adipocyte stage)?
**A.** 6.8%

**Q.** What about the inhibition at 25 µg/mL ([2]; Adipocyte, forskolin 25 μg/ml, read-out: % inhibition of adipogenesis when forskolin is added after differentiation of pre-adipocytes to the adipocyte stage) of the same molecule?
**A.** 10.6%

**Q.** And the inhibition at 50 µg/mL ([2]; Adipocyte, forskolin 50 μg/ml, read-out: % inhibition of adipogenesis when forskolin is added after differentiation of pre-adipocytes to the adipocyte stage)?
**A.** 12.9%

**Q.** What about the inhibition at 100 µg/mL ([2]; Adipocyte, forskolin 100 μg/ml, read-out: % inhibition of adipogenesis when forskolin is added after differentiation of pre-adipocytes to the adipocyte stage) of the same molecule?
**A.** 18.5%

**Q.** And the “% inhibition of adipogenesis when forskolin is added at the pre-adipocyte stage (before differentiation into the adipocyte stage)” value ([2]; forskolin 6.25 μg/ml)?
**A.** 10.2%

**Q.** What about the “% inhibition of adipogenesis when forskolin is added at the pre-adipocyte stage (before differentiation into the adipocyte stage)” value ([2]; forskolin 12.50 μg/ml) of the same molecule?
**A.** 12.8%

**Q.** What about the “% inhibition of adipogenesis when forskolin is added at the pre-adipocyte stage (before differentiation into the adipocyte stage)” value ([2]; forskolin 25 μg/ml) of the same molecule?
**A.** 19.7%

**Q.** And the “% inhibition of adipogenesis when forskolin is added at the pre-adipocyte stage (before differentiation into the adipocyte stage)” value ([2]; forskolin 50 μg/ml)?
**A.** 35.5%

**Q.** What about the “% inhibition of adipogenesis when forskolin is added at the pre-adipocyte stage (before differentiation into the adipocyte stage)” value ([2]; forskolin 100 μg/ml) of the same molecule?
**A.** 41.8%
